Source: US20090069551A1, “Flavorant Compounds” (priority 2006, published 2009)

What was measured:
[1] = Sensorial taste evaluation: taste thresholds by modified duo test with a sensory panel; format: in vivo; details: for taste threshold: modified duo test, sample versus tap water; for threshold concentration, times lower than the threshold concentration of catechin: relative to catechin
Excerpt: Sensorial taste evaluation of (E)-6-(3-hydroxyphenyl)-(4-O-β-D-glucopyranoside)hex-5-en-2-one and (3E,5E)-6-[3-Hydroxy-4-O-β-D-glucopyranoside-phenyl]-hexa-3 ,5-dien-2-one
For evaluation of taste thresholds of the isolated substances, a modified duo test is used. […] As astringent substances can remain longer on the tongue or possibly can be fortified by addition of tap water, the assessed dilutions (tap water and assay) were given on two different regions of the tongue to compare the taste impressions. The panelists had to determine the dilution at which a difference between sample and tap water could be found.

[2] = Isoastringency: isointensity of astringent perception with a 700 μM aqueous catechin solution; format: in vivo; details: versus 700 μM aqueous catechin solution (pH 4.5)

SMILES | taste threshold [1] [µmol/L] | threshold concentration, times lower than the threshold concentration of catechin [1] | isoastringency: concentration needed to reach isointensity of astringent perception with catechin solution [2] [µmol/L]
CC(=O)CC/C=C/c1ccc(O[C@@H]2OC(CO)[C@@H](O)C(O)C2O)c(O)c1 (stereo partly drawn) [(E)-6-(3-hydroxyphenyl)-(4-O-β-D-glucopyranoside)hex-5-en-2-one] | 4.3 | about 100 times | 120
CC(=O)/C=C/C=C/c1ccc(O[C@@H]2OC(CO)[C@@H](O)C(O)C2O)c(O)c1 (stereo partly drawn) [(3E,5E)-6-[3-Hydroxy-4-O-β-D-glucopyranoside-phenyl]-hexa-3,5-dien-2-one] | 4.0 | about 100 times | 200
